# In publication PMC5218480 (PLoS ONE, 2017):
# Test system: MV-4-11 cells
# Experiment: Gene expression microarray analysis (Affymetrix PrimeView) and GSEA
# Format: cell-based, human
# Parameters: RFU PODN (11730768_x_at) / Fold change /veh PODN (11730768_x_at) / RFU LINC00158 (11744669_a_at) / Fold change /veh LINC00158 (11744669_a_at) / RFU DUSP10 (11751237_a_at) / Fold change /veh DUSP10 (11751237_a_at) / RFU ID3 (11757404_x_at) / Fold change /veh ID3 (11757404_x_at) / RFU PLEKHG5 (11737974_s_at) / Fold change /veh PLEKHG5 (11737974_s_at) / RFU LRRC4B (11730491_at) / Fold change /veh LRRC4B (11730491_at) / RFU GIMAP4 (11747438_a_at) / Fold change /veh GIMAP4 (11747438_a_at) / RFU KRT8 (11758183_x_at) / Fold change /veh KRT8 (11758183_x_at) / RFU CNN1 (11734310_a_at) / Fold change /veh CNN1 (11734310_a_at) / RFU VPS37D (11726825_at) / Fold change /veh VPS37D (11726825_at) / RFU C10orf10 (11716522_x_at) / Fold change /veh C10orf10 (11716522_x_at) / RFU KIR2DL2 /// KIR2DL4 /// KIR2DL5A /// KIR2DL5B /// KIR2DS1 /// KIR2DS2 /// KIR2DS3 /// KIR2DS4 /// KIR3DL3 /// KIR3DL3 /// KIR3DS1 (11738374_at) / Fold change /veh KIR2DL2 /// KIR2DL4 /// KIR2DL5A /// KIR2DL5B /// KIR2DS1 /// KIR2DS2 /// KIR2DS3 /// KIR2DS4 /// KIR3DL3 /// KIR3DL3 /// KIR3DS1 (11738374_at) / RFU C1QL1 (11718748_at) / Fold change /veh C1QL1 (11718748_at) / RFU TMPRSS4 (11747572_a_at) / Fold change /veh TMPRSS4 (11747572_a_at) / RFU HAMP (11756126_x_at) / Fold change /veh HAMP (11756126_x_at) / RFU RNFT2 (11725882_a_at) / Fold change /veh RNFT2 (11725882_a_at) / RFU NR4A2 (11747474_a_at) / Fold change /veh NR4A2 (11747474_a_at) / RFU ABCC12 (11746883_a_at) / Fold change /veh ABCC12 (11746883_a_at) / RFU TMEM136 (11760407_x_at) / Fold change /veh TMEM136 (11760407_x_at) / RFU CLDN22 /// WWC2 (11732394_at) / Fold change /veh CLDN22 /// WWC2 (11732394_at) / RFU HLA-DPB1 (11760878_x_at) / Fold change /veh HLA-DPB1 (11760878_x_at) / RFU SPINT1 (11716480_a_at) / Fold change /veh SPINT1 (11716480_a_at) / RFU GAP43 (11754022_s_at) / Fold change /veh GAP43 (11754022_s_at) / RFU A4GNT (11735810_at) / Fold change /veh A4GNT (11735810_at) / RFU PRB3 (11715151_x_at) / Fold change /veh PRB3 (11715151_x_at) / RFU TUBB4B (11761932_at) / Fold change /veh TUBB4B (11761932_at) / RFU CAPN14 (11732068_a_at) / Fold change /veh CAPN14 (11732068_a_at) / RFU TMCC2 (11721928_a_at) / Fold change /veh TMCC2 (11721928_a_at) / RFU IRGQ (11745062_a_at) / Fold change /veh IRGQ (11745062_a_at) / RFU FAM174B (11720279_a_at) / Fold change /veh FAM174B (11720279_a_at) / RFU TMPRSS4 (11748680_a_at) / Fold change /veh TMPRSS4 (11748680_a_at) / RFU FAM212B (11763350_a_at) / Fold change /veh FAM212B (11763350_a_at) / RFU PLEKHG5 (11743358_a_at) / Fold change /veh PLEKHG5 (11743358_a_at) / RFU ZSCAN30 (11745921_a_at) / Fold change /veh ZSCAN30 (11745921_a_at) / RFU CMKLR1 (11741424_a_at) / Fold change /veh CMKLR1 (11741424_a_at) / RFU LOC101060620 /// MAPK8IP1 (11723275_at) / Fold change /veh LOC101060620 /// MAPK8IP1 (11723275_at) / RFU SPTSSB (11747773_x_at) / Fold change /veh SPTSSB (11747773_x_at) / RFU PRSS12 (11739890_at) / Fold change /veh PRSS12 (11739890_at) / RFU BIN1 (11741810_x_at) / Fold change /veh BIN1 (11741810_x_at) / RFU WNT11 (11732464_a_at) / Fold change /veh WNT11 (11732464_a_at) / RFU C10orf10 (11716521_a_at) / Fold change /veh C10orf10 (11716521_a_at) / RFU C5orf56 (11738089_at) / Fold change /veh C5orf56 (11738089_at) / RFU CYB561 (11721691_x_at) / Fold change /veh CYB561 (11721691_x_at) / RFU ANKRD19P (11752326_a_at) / Fold change /veh ANKRD19P (11752326_a_at) / RFU OR2T12 /// OR2T33 /// OR2T8 (11738714_s_at) / Fold change /veh OR2T12 /// OR2T33 /// OR2T8 (11738714_s_at) / RFU VCAN (11748164_a_at) / Fold change /veh VCAN (11748164_a_at) / RFU JSRP1 (11732532_at) / Fold change /veh JSRP1 (11732532_at) / RFU KRTAP10-11 (11738290_x_at) / Fold change /veh KRTAP10-11 (11738290_x_at) / RFU MYO3A (11730013_a_at) / Fold change /veh MYO3A (11730013_a_at) / RFU EBF3 (11725865_a_at) / Fold change /veh EBF3 (11725865_a_at) / RFU CAMK2N1 (11719241_x_at) / Fold change /veh CAMK2N1 (11719241_x_at) / RFU C5orf56 (11738088_a_at) / Fold change /veh C5orf56 (11738088_a_at) / RFU OLFML3 (11715873_a_at) / Fold change /veh OLFML3 (11715873_a_at) / RFU LOC100653217 /// NTM (11731650_a_at) / Fold change /veh LOC100653217 /// NTM (11731650_a_at) / RFU MAPK11 (11762145_a_at) / Fold change /veh MAPK11 (11762145_a_at) / RFU FIZ1 (11724087_x_at) / Fold change /veh FIZ1 (11724087_x_at) / RFU OASL (11726364_x_at) / Fold change /veh OASL (11726364_x_at) / RFU SOX15 (11748057_x_at) / Fold change /veh SOX15 (11748057_x_at) / RFU CD79A (11719716_a_at) / Fold change /veh CD79A (11719716_a_at) / RFU HIST1H1D (11736915_at) / Fold change /veh HIST1H1D (11736915_at) / RFU CASKIN2 (11723855_a_at) / Fold change /veh CASKIN2 (11723855_a_at) / RFU LOC730098 (11760151_x_at) / Fold change /veh LOC730098 (11760151_x_at) / RFU OR4N2 (11742367_at) / Fold change /veh OR4N2 (11742367_at) / RFU PRRT2 (11749266_a_at) / Fold change /veh PRRT2 (11749266_a_at) / RFU SNX32 (11753110_a_at) / Fold change /veh SNX32 (11753110_a_at) / RFU CDHR5 (11726645_a_at) / Fold change /veh CDHR5 (11726645_a_at) / RFU RCAN1 (11760418_a_at) / Fold change /veh RCAN1 (11760418_a_at) / RFU FAM167A (11723789_a_at) / Fold change /veh FAM167A (11723789_a_at) / RFU FAM26E (11764081_at) / Fold change /veh FAM26E (11764081_at) / RFU ISYNA1 (11749810_s_at) / Fold change /veh ISYNA1 (11749810_s_at) / RFU ACY1 (11761880_at) / Fold change /veh ACY1 (11761880_at) / RFU 11764098_at / Fold change /veh 11764098_at / RFU SAMD14 (11745864_x_at) / Fold change /veh SAMD14 (11745864_x_at) / RFU NPB (11741838_a_at) / Fold change /veh NPB (11741838_a_at) / RFU TMPRSS6 (11731388_a_at) / Fold change /veh TMPRSS6 (11731388_a_at) / RFU KRTAP10-2 (11738614_at) / Fold change /veh KRTAP10-2 (11738614_at) / RFU ARHGAP8 /// PRR5-ARHGAP8 (11727945_x_at) / Fold change /veh ARHGAP8 /// PRR5-ARHGAP8 (11727945_x_at) / RFU KRTAP5-7 /// NADSYN1 (11734609_at) / Fold change /veh KRTAP5-7 /// NADSYN1 (11734609_at) / RFU RASL12 (11751679_a_at) / Fold change /veh RASL12 (11751679_a_at) / RFU CDKN2B (11736163_a_at) / Fold change /veh CDKN2B (11736163_a_at) / RFU PRF1 (11729649_at) / Fold change /veh PRF1 (11729649_at) / RFU, ZNF638 /// ZNF638-IT1 / Fold change vs veh, ZNF638 /// ZNF638-IT1 / RFU, PANK3 / Fold change vs veh, PANK3 / RFU, SH3YL1 / Fold change vs veh, SH3YL1 / RFU, ZEB2 / Fold change vs veh, ZEB2 / RFU, NRIP1 / Fold change vs veh, NRIP1 / RFU, PTTG1IP / Fold change vs veh, PTTG1IP / RFU, CAPN2 / Fold change vs veh, CAPN2 / RFU, MED14 / Fold change vs veh, MED14 / RFU, SNORA58 / Fold change vs veh, SNORA58 / RFU, C1orf63 / Fold change vs veh, C1orf63 / RFU, LRRFIP1 / Fold change vs veh, LRRFIP1 / RFU, NDUFAF7 / Fold change vs veh, NDUFAF7 / RFU, SLC12A2 / Fold change vs veh, SLC12A2 / RFU, IBTK / Fold change vs veh, IBTK / RFU, ESF1 / Fold change vs veh, ESF1 / Fold change vs veh, TMEM50B / RFU, TAOK1 / Fold change vs veh, TAOK1 / RFU, ACBD3 / Fold change vs veh, ACBD3 / RFU, TMA16 / Fold change vs veh, TMA16 / RFU, RWDD3 / Fold change vs veh, RWDD3 / RFU, BCAT1 / Fold change vs veh, BCAT1 / RFU, EDEM3 / Fold change vs veh, EDEM3 / RFU, TMEM33 / Fold change vs veh, TMEM33 / RFU, WDR75 / Fold change vs veh, WDR75 / RFU, AHCTF1 / Fold change vs veh, AHCTF1 / RFU, TFRC / Fold change vs veh, TFRC / RFU, ZDHHC17 / Fold change vs veh, ZDHHC17 / RFU, NOM1 / Fold change vs veh, NOM1 / RFU, ARL8B / Fold change vs veh, ARL8B / RFU, ZBTB11 / Fold change vs veh, ZBTB11 / RFU, TAMM41 / Fold change vs veh, TAMM41 / RFU, KIAA1704 /// LOC100996395 / Fold change vs veh, KIAA1704 /// LOC100996395 / RFU, ING1 / Fold change vs veh, ING1 / RFU, TRMT61B / Fold change vs veh, TRMT61B / RFU, FUBP3 / Fold change vs veh, FUBP3 / RFU, TP53 / Fold change vs veh, TP53 / RFU, TNKS2 / Fold change vs veh, TNKS2 / RFU, ZFP14 / Fold change vs veh, ZFP14 / RFU, ACTR2 / Fold change vs veh, ACTR2 / RFU, PPP3R1 / Fold change vs veh, PPP3R1 / RFU, PIK3R1 / Fold change vs veh, PIK3R1 / RFU, HNRNPA1 / Fold change vs veh, HNRNPA1 / RFU, RNF170 / Fold change vs veh, RNF170 / RFU, ZNF28 / Fold change vs veh, ZNF28 / RFU, RNGTT / Fold change vs veh, RNGTT / RFU, OGT / Fold change vs veh, OGT / RFU, BRD1 / Fold change vs veh, BRD1 / RFU, MARS / Fold change vs veh, MARS / RFU, ZNF655 / Fold change vs veh, ZNF655 / RFU, FAHD1 / Fold change vs veh, FAHD1 / RFU, BDP1 / Fold change vs veh, BDP1 / RFU, LRRCC1 / Fold change vs veh, LRRCC1 / RFU, ARID1A / Fold change vs veh, ARID1A / RFU, ZNF146 / Fold change vs veh, ZNF146 / RFU, ZNF330 / Fold change vs veh, ZNF330 / RFU, GPN3 / Fold change vs veh, GPN3 / RFU, C9orf123 / Fold change vs veh, C9orf123 / RFU, N4BP2L2 / Fold change vs veh, N4BP2L2 / RFU, ARFIP1 / Fold change vs veh, ARFIP1 / RFU, FAM179B / Fold change vs veh, FAM179B / RFU, BCL10 / Fold change vs veh, BCL10 / RFU, UHRF1BP1L / Fold change vs veh, UHRF1BP1L / RFU, BET1 / Fold change vs veh, BET1 / RFU, CNOT2 / Fold change vs veh, CNOT2 / RFU, ZNF268 / Fold change vs veh, ZNF268 / Fold change vs veh, ZNF507 / RFU, DGCR2 / Fold change vs veh, DGCR2 / RFU, WDSUB1 / Fold change vs veh, WDSUB1 / Fold change vs veh, HSP90B1 /// MIR3652 / RFU, ADSS / Fold change vs veh, ADSS / RFU, GK / Fold change vs veh, GK / RFU, ZNF148 / Fold change vs veh, ZNF148 / RFU, TAF9 / Fold change vs veh, TAF9 / RFU, SLC1A5 / Fold change vs veh, SLC1A5 / RFU, SLMO2 / Fold change vs veh, SLMO2 / RFU, ABCC4 / Fold change vs veh, ABCC4 / RFU, LOC101060439 /// RAP1B / Fold change vs veh, LOC101060439 /// RAP1B / RFU, RFX7 / Fold change vs veh, RFX7 / RFU, GTPBP10 / Fold change vs veh, GTPBP10 / RFU, CNEP1R1 / Fold change vs veh, CNEP1R1 / RFU, BIVM-ERCC5 /// ERCC5 / Fold change vs veh, BIVM-ERCC5 /// ERCC5 / RFU, ILF3 / Fold change vs veh, ILF3 / RFU 11762660_at / Fold change /veh 11762660_at / RFU VCAN (11757783_s_at) / Fold change /veh VCAN (11757783_s_at) / RFU DDX43 (11728927_at) / Fold change /veh DDX43 (11728927_at) / RFU KRT8 (11758188_x_at) / Fold change /veh KRT8 (11758188_x_at) / RFU NKD1 (11759106_at) / Fold change /veh NKD1 (11759106_at) / RFU SRD5A1 (11742802_a_at) / Fold change /veh SRD5A1 (11742802_a_at) / RFU TPSAB1 /// TPSB2 (11721975_s_at) / Fold change /veh TPSAB1 /// TPSB2 (11721975_s_at) / RFU GSTM3 (11746129_a_at) / Fold change /veh GSTM3 (11746129_a_at) / RFU IL23R (11737362_x_at) / Fold change /veh IL23R (11737362_x_at) / RFU TMEM51 (11727254_a_at) / Fold change /veh TMEM51 (11727254_a_at) / RFU PIWIL2 (11732686_x_at) / Fold change /veh PIWIL2 (11732686_x_at) / RFU ORM1 (11744905_x_at) / Fold change /veh ORM1 (11744905_x_at) / RFU CCDC152 (11743942_at) / Fold change /veh CCDC152 (11743942_at) / RFU ECM1 (11717891_a_at) / Fold change /veh ECM1 (11717891_a_at) / RFU IL23R (11748794_a_at) / Fold change /veh IL23R (11748794_a_at) / RFU TNFAIP8L3 (11732012_x_at) / Fold change /veh TNFAIP8L3 (11732012_x_at) / RFU MBOAT4 (11741988_at) / Fold change /veh MBOAT4 (11741988_at) / RFU 11764193_at / Fold change /veh 11764193_at / RFU TMEM53 (11763286_at) / Fold change /veh TMEM53 (11763286_at) / RFU MAGEB2 (11727129_at) / Fold change /veh MAGEB2 (11727129_at) / RFU TMEM200A (11744735_a_at) / Fold change /veh TMEM200A (11744735_a_at) / RFU CCDC152 (11751479_a_at) / Fold change /veh CCDC152 (11751479_a_at) / RFU FAM211A (11726209_a_at) / Fold change /veh FAM211A (11726209_a_at) / RFU RGS16 (11746705_a_at) / Fold change /veh RGS16 (11746705_a_at) / RFU VCAN (11755009_s_at) / Fold change /veh VCAN (11755009_s_at) / RFU RHOB (11743442_s_at) / Fold change /veh RHOB (11743442_s_at) / RFU RGS16 (11720943_a_at) / Fold change /veh RGS16 (11720943_a_at) / RFU RGS16 (11720944_at) / Fold change /veh RGS16 (11720944_at) / RFU, VPS4B / Fold change vs veh, VPS4B / RFU, CREB1 / Fold change vs veh, CREB1 / RFU, DNAJC13 / Fold change vs veh, DNAJC13 / RFU, GNAQ / Fold change vs veh, GNAQ / RFU, CDK5R1 / Fold change vs veh, CDK5R1 / RFU, ZRANB3 / Fold change vs veh, ZRANB3 / RFU, CUL4A / Fold change vs veh, CUL4A / RFU, CCNY / Fold change vs veh, CCNY / RFU, UFL1 / Fold change vs veh, UFL1 / RFU, COG3 / Fold change vs veh, COG3 / RFU, DIAPH2 / Fold change vs veh, DIAPH2 / RFU, SKA2 / Fold change vs veh, SKA2 / RFU, AFF3 / Fold change vs veh, AFF3 / RFU, LMF1 / Fold change vs veh, LMF1 / RFU, IPO11 / Fold change vs veh, IPO11 / RFU, DFFB / Fold change vs veh, DFFB / RFU, FOXP1 / Fold change vs veh, FOXP1 / RFU, CARD8 / Fold change vs veh, CARD8 / RFU, STRN3 / Fold change vs veh, STRN3 / RFU, ADK / Fold change vs veh, ADK / RFU, RASSF2 / Fold change vs veh, RASSF2 / RFU, WIPF1 / Fold change vs veh, WIPF1 / RFU, LARP1B / Fold change vs veh, LARP1B / RFU, RASA1 / Fold change vs veh, RASA1 / RFU, RB1 / Fold change vs veh, RB1 / RFU, PPFIA1 / Fold change vs veh, PPFIA1 / RFU, MAT2A / Fold change vs veh, MAT2A / RFU, CCT5 / Fold change vs veh, CCT5 / RFU, WDR92 / Fold change vs veh, WDR92 / RFU, CUX1 / Fold change vs veh, CUX1 / RFU, TTC7A / Fold change vs veh, TTC7A / RFU, TMEM135 / Fold change vs veh, TMEM135 / RFU, DEPTOR / Fold change vs veh, DEPTOR / RFU, CPM / Fold change vs veh, CPM / RFU, DNAJB6 / Fold change vs veh, DNAJB6 / RFU, CACNA2D3 / Fold change vs veh, CACNA2D3 / RFU, DTX4 / Fold change vs veh, DTX4 / RFU, TFCP2 / Fold change vs veh, TFCP2 / RFU, GMCL1 /// GMCL1P1 / Fold change vs veh, GMCL1 /// GMCL1P1 / RFU, AEBP2 / Fold change vs veh, AEBP2 / RFU, SNHG1 /// SNORD22 /// SNORD25 /// SNORD26 /// SNORD27 /// SNORD28 /// SNORD29 /// SNORD31 / Fold change vs veh, SNHG1 /// SNORD22 /// SNORD25 /// SNORD26 /// SNORD27 /// SNORD28 /// SNORD29 /// SNORD31 / Fold change (Aza/veh), C12orf56 (ProbeSet 11735607_a_at) / Fold change (ACY-1035/veh), C12orf56 (ProbeSet 11735607_a_at) / Fold change (Aza/veh), FGFR1OP (ProbeSet 11751329_s_at) / Fold change (ACY-1035/veh), FGFR1OP (ProbeSet 11751329_s_at) / Fold change (Aza/veh), VPS36 (ProbeSet 11739960_a_at) / Fold change (ACY-1035/veh), VPS36 (ProbeSet 11739960_a_at) / RFU SYPL1 (11715823_x_at) / Fold change /veh SYPL1 (11715823_x_at) / RFU IGFBP7 (11715501_s_at) / Fold change /veh IGFBP7 (11715501_s_at) / RFU REEP3 (11722064_at) / Fold change /veh REEP3 (11722064_at) / RFU IGLL1 (11728026_x_at) / Fold change /veh IGLL1 (11728026_x_at): dose or concentration left out as unconfirmed
# Conditions: MV-4-11 cells, 48 hours
structure (smiles),measurement,value
Nc1ncn([C@@H]2O[C@H](CO)[C@@H](O)[C@H]2O)c(=O)n1 [azacitidine],Fold change /veh CD79A (11719716_a_at),0.94
